The source of these data is publication PMC13288469, “Bile acids accumulate norovirus-like particles and enhance binding to and entry into human enteric epithelial cells” (Journal of Virology, 2026).

This assay addresses T1, HuNoV GII.4 VLP (Human calicivirus NLV/DIJON171/96, UniProt Q8QY55).
T1 construct: full VP1 virus-like particle, self-assembled, from baculovirus (Bac-to-Bac) infected SF-9 cells, sucrose gradient purified; amine-coupled to CM5 chip
The experiment in a line: SPR, Biacore T-200, VLP immobilized on CM5 chip. It is filed as binding. The source says: SPR, Biacore T-200, VLP immobilized on CM5 chip on HuNoV GII.4 VLP
Background: Surface plasmon resonance follows binding to a sensor surface in real time, without labels.

As for `C[C@H](CCC(=O)NCCS(=O)(=O)O)[C@H]1CC[C@H]2[C@@H]3[C@H](O)C[C@@H]4C[C@H](O)CC[C@]4(C)[C@H]3CC[C@]12C` [TCDCA], the affinity, expressed as Kd, was 236 ± 58 µM.

In the case of `C[C@H](CCC(=O)NCCS(=O)(=O)O)[C@H]1CC[C@H]2[C@@H]3CC[C@@H]4C[C@H](O)CC[C@]4(C)[C@H]3C[C@H](O)[C@]12C` [TDCA], binding was characterised by a dissociation constant (Kd) of 308 ± 29.7 µM.

`C[C@H](CCC(=O)O)[C@H]1CC[C@H]2[C@@H]3CC[C@@H]4C[C@H](O)CC[C@]4(C)[C@H]3C[C@H](O)[C@]12C` [DCA]: the Kd amounted to 176 ± 4.9 µM. Against the preceding compound, the Kd is about 1.8-fold lower.

Regarding `C[C@H](CCC(=O)NCCS(=O)(=O)O)[C@H]1CC[C@H]2[C@@H]3CC[C@@H]4C[C@H](O)CC[C@]4(C)[C@H]3CC[C@]12C` [TLCA], binding was put at a Kd of 64 ± 9.9 µM.

`C[C@H](CCC(=O)NCC(=O)O)[C@H]1CC[C@H]2[C@@H]3[C@H](O)C[C@@H]4C[C@H](O)CC[C@]4(C)[C@H]3CC[C@]12C` [GCDCA]: the Kd came to 123 ± 24 µM.

With `C[C@H](CCC(=O)NCC(=O)O)[C@H]1CC[C@H]2[C@@H]3CC[C@@H]4C[C@H](O)CC[C@]4(C)[C@H]3C[C@H](O)[C@]12C` [GDCA], binding was put at a Kd of 286 ± 64.3 µM.

The term Kd denotes the free concentration of one partner at which half of the binding sites on the other are occupied at equilibrium, for simple one-to-one binding.
